# According to patent US12404260B2, “Pyridine rings containing derivatives as MALT1 inhibitors” (Janssen Pharmaceutica NV, priority 2019, dated 2025):
# Target: T1, full-length MALT1 protein (Strep-MALT1(1-824)-His) (Homo sapiens, UniProt Q9UDY8)
# T1 construct: full-length MALT1 protein (Strep-MALT1(1-824)-His) purified from baculovirus-infected insect cells; Strep (N); His (C); made in house; host or cells: baculovirus-infected insect cells
# T1 sequence (Q9UDY8 1-824): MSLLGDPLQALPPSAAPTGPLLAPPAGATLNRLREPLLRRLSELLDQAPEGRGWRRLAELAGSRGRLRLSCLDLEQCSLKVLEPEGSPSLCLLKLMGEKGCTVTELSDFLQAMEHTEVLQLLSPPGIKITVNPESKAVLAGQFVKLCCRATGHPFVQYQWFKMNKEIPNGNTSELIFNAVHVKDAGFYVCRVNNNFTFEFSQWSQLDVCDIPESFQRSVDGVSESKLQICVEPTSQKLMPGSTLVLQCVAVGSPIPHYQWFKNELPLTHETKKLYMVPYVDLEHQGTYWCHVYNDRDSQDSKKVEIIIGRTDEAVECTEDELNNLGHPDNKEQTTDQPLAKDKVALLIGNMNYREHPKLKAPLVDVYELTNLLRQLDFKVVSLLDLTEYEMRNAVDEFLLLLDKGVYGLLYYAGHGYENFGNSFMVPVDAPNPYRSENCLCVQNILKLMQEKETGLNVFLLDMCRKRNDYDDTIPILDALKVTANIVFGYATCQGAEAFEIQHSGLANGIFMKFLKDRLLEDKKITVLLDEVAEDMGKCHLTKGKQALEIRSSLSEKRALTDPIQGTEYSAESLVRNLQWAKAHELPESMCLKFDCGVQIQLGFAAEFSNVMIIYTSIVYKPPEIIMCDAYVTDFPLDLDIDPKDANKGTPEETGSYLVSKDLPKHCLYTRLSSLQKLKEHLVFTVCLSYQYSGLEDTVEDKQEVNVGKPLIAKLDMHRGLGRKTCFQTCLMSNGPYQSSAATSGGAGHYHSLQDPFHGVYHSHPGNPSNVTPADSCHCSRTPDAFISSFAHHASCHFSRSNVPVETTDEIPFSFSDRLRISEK
# Assay: MALT1 Biochemical Protease Assay
# Conditions: 10 nM FL MALT1, 200 μM Ac-LRSR-AMC, 50 min pre-incubation, 4 h at RT; read-out: MALT1_Biochemical activity (Ac-LRSR-amc) IC50
# Protocol: MALT1 protease activity was assessed in an in vitro assay using a tetrapeptide as substrate and full-length MALT1 protein (Strep-MALT1(1-824)-His) purified from baculovirus-infected insect cells. The tetrapeptide LRSR is coupled to AMC (7-amino-4-methylcoumarin) and provides a quenched, fluorescent substrate for the MALT1 protease (SM Biochemicals). Cleavage of AMC from the Arginine residue results in an increase in coumarin fluorescence measured at 460 nm (excitation 355 nm). The final assay buffer consisted of 10 nM FL MALT1 protein, 200 μM Ac-LRSR-AMC, 50 mM Tris pH 7.5, 0.6 M Citrate, 1 mM DTT, 1 mM EDTA, 0.05% BSA and 1.5% DMSO. Test compounds were spotted at 50 nL in 100% DMSO per well of a black 384-Proxiplate (Perkin Elmer). Test compound concentrations ranged from 30 μM to 0.5 nM using 11 dilution steps (1:3). Background signal was measured from control wells containing assay buffer without enzyme which functions as low control (LC). High control (HC) values were generated using the reaction with enzyme but no compound treatment. Compounds were pre-incubated with MALT1 enzyme for 50 minutes at RT. Substrate was added subsequently and fluorescence was measured in Labsystems fluoroskan at excitation 355 nm and emission 460 nm to determine time 0. The reaction was subsequently incubated for 4 h at RT and fluorescence was measured. For IC50 calculations, timepoint 0 was subtracted from the 4 h timepoint to correct for any potential autofluorescence of the compounds. The enzyme reaction was linear during the 4 h incubation period. Characterization of the substrate Ac-LRSR-AMC determined the Michaelis constant KM at 200 μM.
# IC50 values were calculated using the following formula (Z prime should be >0.5): […]
# A best-fit curve was fitted by a minimum sum of squares method to the plot of % Controlmin vs. compound concentration. From this an IC50 value (inhibitory concentration causing 50% inhibition) can be obtained. An estimate of the slope of the plot in terms of the Hill coefficient was also obtained.
# Used in “Lexis Dose Response Curve Fitting” Version 1.0.
row,IC50 [nM],SMILES
1,50,"[2H]C([2H])([2H])O[C@H](C)c1c(NC(=O)Nc2cnc(-n3nccn3)c(C(F)(F)F)c2)cncc1OC (single isomer, unassigned) [Co. 132]"
2,4570,CO[C@@H](C)c1c(Cl)cncc1NC(=O)Nc1cnc(-n2nccn2)c(Cl)c1 [Co. 24]
3,230,CCOC(=O)c1cncc(NC(=O)Nc2cnc(-n3nccn3)c(Cl)c2)c1[C@@H](C)OC [Co. 36]
4,60,"COC(C)c1c(NC(=O)Nc2cnc(-n3ncc(C(C)O)n3)c(Cl)c2)cnc(C)c1C#N (single isomer, unassigned) [Co. 114]"
5,680,CO[C@H](C)c1c(NC(=O)Nc2cnc(-n3nccn3)c(C(F)(F)F)c2)cnc(C)c1Cl [Co. 112]
6,15100,"COC(C)c1c(NC(=O)Nc2ccnc(C(F)(F)F)c2)cnc(C)c1Cl (single isomer, unassigned) [Co. 65]"
7,290,"CO[C@H](C)c1c(NC(=O)Nc2ccnc(C(F)(F)F)c2)cnc(C)c1C#N (single isomer, unassigned) [Co. 145]"
8,> 30200,CO[C@@H](C)c1c(NC(=O)Nc2cnc(C3CC3)c(C(F)(F)F)c2)cnc(C)c1Br [Co. 53]
9,50,COc1nc(-n2nccn2)c(Cl)cc1NC(=O)Nc1cnc(C)c(Cl)c1[C@@H](C)OC [Co. 82]
10,40,CO[C@@H](C)c1c(NC(=O)Nc2cnc(-n3nccn3)c(Cl)c2)cnc(C)c1C#N [Co. 61]
11,20,COc1nc(-n2nccn2)c(Cl)cc1NC(=O)Nc1cnc(C)c(C#N)c1[C@@H](C)OC [Co. 79]
12,290,"CO[C@H](C)c1c(NC(=O)Nc2cnc(-n3nccn3)c(C(F)(F)F)c2)cnc(N)c1Br (single isomer, unassigned) [Co. 138]"
13,1350,CO[C@H](C)c1c(NC(=O)Nc2cnc(OC(F)F)c(Cl)c2)cnc(C)c1Cl [Co. 74]
14,> 30200,"COC(C)c1c(NC(=O)Nc2cnc(C3CC3)c(C(F)(F)F)c2)cnc(C)c1Cl (single isomer, unassigned) [Co. 68]"
15,2100,CO[C@H](C)c1c(C#N)cncc1NC(=O)Nc1cnc(-n2nccn2)c(Cl)c1 [Co. 27]

# Test system: secretion of IL6 by OCI-LY3 ABC-DLBCL cells
# Assay: Human IL6 Mesoscale assay (OCI-LY3)
# Assay type: cell-based
# Conditions: 24 h incubation, IL6 in supernatant
# Protocol: (§1) NFKB signaling regulates the secretion of multiple cytokines, including IL6 and IL10. Secretion of the cytokines IL6 and IL10 by OCI-LY3 ABC-DLBCL cells was measured using a mesoscale assay. Inhibition of NFKB signaling by MALT1 inhibitors results in a decrease of IL6/10 secretion.
# (§2) OCI-LY3 cells were propagated in RPMI-1640 (Sigma Aldrich) supplemented with 10% fetal bovine serum (HyClone), 1 mM sodium pyruvate (Invitrogen), 2 mM L-glutamine (Sigma Aldrich) and 1% PenStrep (Sigma Aldrich). Cell passage number should not exceed 30. Cells should be kept between 0.5-2.5 million cells per mL during culturing and cells should be supplemented every 2-3 days with fresh 50 μM beta-mercaptoethanol. No beta-mercaptoethanol was used during the mesoscale assay.
# (§3) For the Mesoscale assay, 100,000 OCI-LY3 cells were seeded per well into black-colored 96-well plates with clear bottom (Corning #3904) and test compounds were added in 9 dilution steps (1:2) ranging from 15 μM to 58.6 nM (final DMSO concentration 0.3%). DMSO control wells were used to determine the maximum signal (High Control (HC)). Treatment with the BTK inhibitor RN486 in a dose range from 30 nM to […] (9 dilutions of 1:2) served as a positive control for NFKB pathway inhibition and was used to determine the maximum inhibition (Low Control (LC)). Compounds and cells were incubated for 24 h at 37° C. and 5% CO2 (assay volume is 150 μL). After 24 h of incubation 50 μL of the supernatant was transferred to a MSD plate (V-Plex Proinflammation Panel 1 (human) kit, Mesoscale (MSD)) and incubated for 2 h with vigorous shaking (600 rpm) at room temperature. Following incubation, plates were washed 3× with PBS+0.05% Tween-20 and 25 μL detection antibody solution (IL6 & IL10 antibodies in diluent 3 (MSD)) was added per well followed by 2 h of incubation with vigorous shaking (600 rpm) at room temperature. After 3× washes with PBS+0.05% Tween-20, plates were incubated with 150 μL 2× Read Buffer T and read on SECTOR imager.
row,IC50 [nM],SMILES
1,5620,CO[C@@H](C)c1c(Cl)cncc1NC(=O)Nc1cnc(-n2nccn2)c(Cl)c1 [Co. 24]
2,220,CCOC(=O)c1cncc(NC(=O)Nc2cnc(-n3nccn3)c(Cl)c2)c1[C@@H](C)OC [Co. 36]
3,400,"COC(C)c1c(NC(=O)Nc2cnc(-n3ncc(C(C)O)n3)c(Cl)c2)cnc(C)c1C#N (single isomer, unassigned) [Co. 114]"
4,870,CO[C@H](C)c1c(NC(=O)Nc2cnc(-n3nccn3)c(C(F)(F)F)c2)cnc(C)c1Cl [Co. 112]
5,> 15000,"COC(C)c1c(NC(=O)Nc2ccnc(C(F)(F)F)c2)cnc(C)c1Cl (single isomer, unassigned) [Co. 65]"
6,> 15000,CO[C@@H](C)c1c(NC(=O)Nc2cnc(C3CC3)c(C(F)(F)F)c2)cnc(C)c1Br [Co. 53]
7,120,COc1nc(-n2nccn2)c(Cl)cc1NC(=O)Nc1cnc(C)c(Cl)c1[C@@H](C)OC [Co. 82]
8,130,CO[C@@H](C)c1c(NC(=O)Nc2cnc(-n3nccn3)c(Cl)c2)cnc(C)c1C#N [Co. 61]
9,110,COc1nc(-n2nccn2)c(Cl)cc1NC(=O)Nc1cnc(C)c(C#N)c1[C@@H](C)OC [Co. 79]
10,930,CO[C@H](C)c1c(NC(=O)Nc2cnc(OC(F)F)c(Cl)c2)cnc(C)c1Cl [Co. 74]
11,> 15000,"COC(C)c1c(NC(=O)Nc2cnc(C3CC3)c(C(F)(F)F)c2)cnc(C)c1Cl (single isomer, unassigned) [Co. 68]"
12,2800,CO[C@H](C)c1c(C#N)cncc1NC(=O)Nc1cnc(-n2nccn2)c(Cl)c1 [Co. 27]

# Same assay, conditions: Homo sapiens, 24 h incubation, IL6 in supernatant
row,IC50 [nM],SMILES
1,150,"[2H]C([2H])([2H])O[C@H](C)c1c(NC(=O)Nc2cnc(-n3nccn3)c(C(F)(F)F)c2)cncc1OC (single isomer, unassigned) [Co. 132]"
2,260,"CO[C@H](C)c1c(NC(=O)Nc2ccnc(C(F)(F)F)c2)cnc(C)c1C#N (single isomer, unassigned) [Co. 145]"
3,600,"CO[C@H](C)c1c(NC(=O)Nc2cnc(-n3nccn3)c(C(F)(F)F)c2)cnc(N)c1Br (single isomer, unassigned) [Co. 138]"

# Test system: secretion of IL10 by OCI-LY3 ABC-DLBCL cells
# Assay: Human IL10 Mesoscale assay (OCI-LY3)
# Assay type: cell-based
# Conditions: 24 h incubation, IL10 in supernatant
# Protocol: as §1, §2, §3
row,IC50 [nM],SMILES
1,3980,CO[C@@H](C)c1c(Cl)cncc1NC(=O)Nc1cnc(-n2nccn2)c(Cl)c1 [Co. 24]
2,140,CCOC(=O)c1cncc(NC(=O)Nc2cnc(-n3nccn3)c(Cl)c2)c1[C@@H](C)OC [Co. 36]
3,170,"COC(C)c1c(NC(=O)Nc2cnc(-n3ncc(C(C)O)n3)c(Cl)c2)cnc(C)c1C#N (single isomer, unassigned) [Co. 114]"
4,480,CO[C@H](C)c1c(NC(=O)Nc2cnc(-n3nccn3)c(C(F)(F)F)c2)cnc(C)c1Cl [Co. 112]
5,6610,"COC(C)c1c(NC(=O)Nc2ccnc(C(F)(F)F)c2)cnc(C)c1Cl (single isomer, unassigned) [Co. 65]"
6,> 15000,CO[C@@H](C)c1c(NC(=O)Nc2cnc(C3CC3)c(C(F)(F)F)c2)cnc(C)c1Br [Co. 53]
7,90,COc1nc(-n2nccn2)c(Cl)cc1NC(=O)Nc1cnc(C)c(Cl)c1[C@@H](C)OC [Co. 82]
8,90,CO[C@@H](C)c1c(NC(=O)Nc2cnc(-n3nccn3)c(Cl)c2)cnc(C)c1C#N [Co. 61]
9,60,COc1nc(-n2nccn2)c(Cl)cc1NC(=O)Nc1cnc(C)c(C#N)c1[C@@H](C)OC [Co. 79]
10,650,CO[C@H](C)c1c(NC(=O)Nc2cnc(OC(F)F)c(Cl)c2)cnc(C)c1Cl [Co. 74]
11,> 15000,"COC(C)c1c(NC(=O)Nc2cnc(C3CC3)c(C(F)(F)F)c2)cnc(C)c1Cl (single isomer, unassigned) [Co. 68]"
12,1600,CO[C@H](C)c1c(C#N)cncc1NC(=O)Nc1cnc(-n2nccn2)c(Cl)c1 [Co. 27]

# Same assay, conditions: Homo sapiens, 24 h incubation, IL10 in supernatant
row,IC50 [nM],SMILES
1,60,"[2H]C([2H])([2H])O[C@H](C)c1c(NC(=O)Nc2cnc(-n3nccn3)c(C(F)(F)F)c2)cncc1OC (single isomer, unassigned) [Co. 132]"
2,170,"CO[C@H](C)c1c(NC(=O)Nc2ccnc(C(F)(F)F)c2)cnc(C)c1C#N (single isomer, unassigned) [Co. 145]"
3,380,"CO[C@H](C)c1c(NC(=O)Nc2cnc(-n3nccn3)c(C(F)(F)F)c2)cnc(N)c1Br (single isomer, unassigned) [Co. 138]"
